In ChEMBL document CHEMBL3826941, “Optimization of pyrazole-containing 1,2,4-triazolo-[3,4-b]thiadiazines, a new class of STAT3 pathway inhibitors” (Bioorg Med Chem Lett, 2016):
Active and inactive are the calls of the source. No cut-off for these calls is given here.

Tests used:
[1] = Antiproliferative activity against human CAL33 cells assessed as cell growth inhibition; assay type: functional, CAL-33
[2] = Antiproliferative activity against human 686LN cells assessed as cell growth inhibition; assay type: functional
[3] = target: T1, Signal transducer and activator of transcription 1-alpha/beta (Homo sapiens) (UniProt P42224); assay: Inhibition of IFNgamma-induced STAT1 (unknown origin) at 50 uM
T1 sequence (whole entry): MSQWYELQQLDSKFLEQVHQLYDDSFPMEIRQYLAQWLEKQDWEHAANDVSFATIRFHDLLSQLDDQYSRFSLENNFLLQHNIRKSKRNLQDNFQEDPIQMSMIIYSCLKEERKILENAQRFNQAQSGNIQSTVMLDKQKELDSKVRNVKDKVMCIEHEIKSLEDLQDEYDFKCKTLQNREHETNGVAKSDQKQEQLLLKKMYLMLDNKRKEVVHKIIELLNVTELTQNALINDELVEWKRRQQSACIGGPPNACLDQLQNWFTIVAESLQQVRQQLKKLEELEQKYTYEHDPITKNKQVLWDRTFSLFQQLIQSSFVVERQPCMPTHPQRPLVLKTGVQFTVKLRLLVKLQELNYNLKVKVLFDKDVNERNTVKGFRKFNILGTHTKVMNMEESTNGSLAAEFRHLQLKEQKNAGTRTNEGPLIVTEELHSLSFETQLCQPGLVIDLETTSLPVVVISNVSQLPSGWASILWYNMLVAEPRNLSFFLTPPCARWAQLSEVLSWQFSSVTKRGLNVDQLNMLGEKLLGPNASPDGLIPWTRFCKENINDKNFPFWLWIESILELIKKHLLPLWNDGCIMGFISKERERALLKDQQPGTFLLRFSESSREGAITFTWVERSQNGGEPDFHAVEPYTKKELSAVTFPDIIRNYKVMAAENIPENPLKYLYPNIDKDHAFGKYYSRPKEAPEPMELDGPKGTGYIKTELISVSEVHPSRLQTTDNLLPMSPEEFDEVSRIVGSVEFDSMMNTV

FaDu = assay: Antiproliferative activity against human FADU cells assessed as cell growth inhibition; assay type: functional
[4] = Antiproliferative activity against human OSC19 cells assessed as cell growth inhibition; assay type: functional
[5] = Half life in mouse liver microsomes; assay type: ADME
Liver microsome = assay: Half life in human liver microsomes; assay type: ADME
[6] = target: Signal transducer and activator of transcription 3 (Homo sapiens) (UniProt P40763); assay: Inhibition of STAT3 in IL6-induced human CAL33 cells assessed as inhibition of cyclin D1 gene levels at 3 to 100 uM by Western blot analysis; assay type: cell-based; conditions: CAL-33
Signal transducer and activator of transcription 3 (Homo sapiens), sequence (P40763 whole entry): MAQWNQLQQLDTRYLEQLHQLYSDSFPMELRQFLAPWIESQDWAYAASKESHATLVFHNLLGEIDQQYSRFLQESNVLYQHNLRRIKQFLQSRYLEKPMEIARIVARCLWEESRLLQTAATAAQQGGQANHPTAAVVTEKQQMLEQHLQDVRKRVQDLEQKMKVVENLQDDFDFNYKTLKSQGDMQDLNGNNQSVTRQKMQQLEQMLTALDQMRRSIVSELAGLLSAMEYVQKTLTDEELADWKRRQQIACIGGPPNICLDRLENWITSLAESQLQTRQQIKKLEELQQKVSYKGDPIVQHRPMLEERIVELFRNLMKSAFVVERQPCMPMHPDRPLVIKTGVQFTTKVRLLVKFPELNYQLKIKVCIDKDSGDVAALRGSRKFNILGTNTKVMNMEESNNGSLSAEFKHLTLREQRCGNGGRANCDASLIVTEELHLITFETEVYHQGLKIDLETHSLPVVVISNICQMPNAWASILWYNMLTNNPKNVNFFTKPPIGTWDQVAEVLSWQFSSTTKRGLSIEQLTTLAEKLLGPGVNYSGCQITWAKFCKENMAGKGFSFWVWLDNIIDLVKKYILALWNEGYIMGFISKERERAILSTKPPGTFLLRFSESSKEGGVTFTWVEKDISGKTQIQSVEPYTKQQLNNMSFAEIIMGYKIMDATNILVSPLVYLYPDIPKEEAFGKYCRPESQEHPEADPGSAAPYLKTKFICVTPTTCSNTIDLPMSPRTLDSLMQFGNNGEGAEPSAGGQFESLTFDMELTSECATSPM

[7] = target: Signal transducer and activator of transcription 3 (Homo sapiens) (UniProt P40763); assay: Inhibition of STAT3 phosphorylation at Tyr705 in IL6-induced human CAL33 cells assessed as phosphorylated STAT3 at Tyr705 to STAT3 ratio at 10 uM by Western blot analysis; assay type: cell-based; conditions: CAL-33
[8] = target: Signal transducer and activator of transcription 3 (Homo sapiens) (UniProt P40763); assay: Inhibition of STAT3 phosphorylation at Tyr705 in IL6-induced human CAL33 cells at 3 to 100 uM by Western blot analysis; assay type: cell-based; conditions: CAL-33
[9] = target: Signal transducer and activator of transcription 3 (Homo sapiens) (UniProt P40763); assay: Inhibition of STAT3 phosphorylation at Tyr705 in IL6-induced human CAL33 cells assessed as phosphorylated STAT3 at Tyr705 to STAT3 ratio at 30 uM by Western blot analysis; assay type: cell-based; conditions: CAL-33
[10] = target: Signal transducer and activator of transcription 3 (Homo sapiens) (UniProt P40763); assay: Inhibition of STAT3 phosphorylation at Tyr705 in IL6-induced human CAL33 cells assessed as phosphorylated STAT3 at Tyr705 to STAT3 ratio at 100 uM by Western blot analysis; assay type: cell-based; conditions: CAL-33
[11] = target: Signal transducer and activator of transcription 3 (Homo sapiens) (UniProt P40763); assay: Inhibition of STAT3 in IL6-induced human CAL33 cells assessed as inhibition of Bcl-XL gene levels at 3 to 100 uM by Western blot analysis; assay type: cell-based; conditions: CAL-33

SMILES: CC(C)C1Sc2nnc(-c3[nH]nc4c3CCC4)n2N=C1c1ccc(Cl)c(Cl)c1 (stereo unspecified)
- GI50 ([1]; Homo sapiens, CAL-33): 8.2 µM

SMILES: COc1ccc(C2=Nn3c(nnc3-c3[nH]nc4c3CCC4)SC2C(C)C)cc1 (stereo unspecified)
- GI50 ([1]; Homo sapiens, CAL-33): 0.4 µM

SMILES: COc1ccc(C2=Nn3c(nnc3-c3cc(-c4ccccc4)n[nH]3)SC2CC(C)C)cc1 (stereo unspecified)
- GI50 ([1]; Homo sapiens, CAL-33): 0.5 µM

SMILES: Clc1ccc(C2=Nn3c(nnc3-c3cc(-c4ccccc4)[nH]n3)SC2)cc1
- GI50 [2]: 27 µM
- GI50 ([1]; Homo sapiens, CAL-33): 27 µM
- inhibition [3]: inactive
- GI50 (FaDu): 27 µM
- GI50 [4]: 27 µM

SMILES: COc1ccc(C2=Nn3c(nnc3-c3[nH]nc4c3CCC4)SC2C)cc1 (stereo unspecified)
- GI50 [2]: 0.88 µM
- GI50 ([1]; Homo sapiens, CAL-33): 0.18 µM
- GI50 (FaDu): 1.3 µM
- GI50 [4]: 3.1 µM

SMILES: CC1Sc2nnc(-c3cc(-c4ccc(F)cc4)n[nH]3)n2N=C1c1ccccc1 (stereo unspecified)
- GI50 ([1]; Homo sapiens, CAL-33): 36.3 µM

SMILES: COc1ccc(C2=Nn3c(nnc3-c3cc(-c4ccc(Cl)cc4)n[nH]3)SC2C)cc1 (stereo in doubt; form 1) [listing 1 of 2 here]
- GI50 [2]: 17.4 µM
- GI50 [1]: 2.2 µM
- GI50 (FaDu): 8.4 µM
- GI50 [4]: 14.9 µM

SMILES: CC(C)CC1Sc2nnc(-c3[nH]nc4c3CCC4)n2N=C1c1ccc(Cl)c(Cl)c1 (stereo unspecified)
- GI50 ([1]; Homo sapiens, CAL-33): 3.5 µM

SMILES: COc1ccc(C2=Nn3c(nnc3-c3cc(-c4ccc(Cl)cc4)n[nH]3)SC2C)cc1 (stereo in doubt; form 3)
- GI50 [1]: 21.8 µM

SMILES: COc1ccc(C2=Nn3c(nnc3-c3cc(-c4ccc(F)cc4)n[nH]3)SC2C)cc1 (stereo unspecified)
- GI50 ([1]; Homo sapiens, CAL-33): 29.5 µM

SMILES: Clc1ccc(C2=Nn3c(nnc3-c3[nH]nc4c3CCC4)SC2)cc1Cl
- t1/2 [5]: 4 min
- GI50 [2]: 14 µM
- GI50 ([1]; Homo sapiens, CAL-33): 14 µM
- inhibition [3]: inactive
- GI50 (FaDu): 14 µM
- GI50 [4]: 14 µM
- t1/2 (Liver microsome): 14 min

SMILES: CC1(C)Sc2nnc(-c3[nH]nc4c3CCC4)n2N=C1c1ccc(Cl)c(Cl)c1
- GI50 ([1]; Homo sapiens, CAL-33): > 50 µM

SMILES: Clc1ccc(C2=Nn3c(nnc3-c3[nH]nc4c3CCC4)SC2Cc2ccccc2)cc1Cl (stereo unspecified)
- GI50 ([1]; Homo sapiens, CAL-33): 3.3 µM

SMILES: COCCC1Sc2nnc(-c3cc(-c4ccccc4)n[nH]3)n2N=C1c1ccc(OC)cc1 (stereo unspecified)
- GI50 ([1]; Homo sapiens, CAL-33): 0.04 µM

SMILES: COc1ccc(C2=Nn3c(nnc3-c3cc(-c4ccc(Cl)cc4)n[nH]3)SC2C)cc1 (stereo in doubt; form 2)
- GI50 [1]: 2.7 µM

SMILES: CC1Sc2nnc(-c3cc(-c4ccccc4)n[nH]3)n2N=C1c1ccccc1 (stereo unspecified)
- inhibition [6]: Active
- inhibition [7]: 15%
- t1/2 [5]: 10 min
- inhibition [8]: Active
- GI50 [2]: 32.2 µM
- GI50 ([1]; Homo sapiens, CAL-33): 34.1 µM
- GI50 (FaDu): 32.7 µM
- inhibition [9]: 28%
- inhibition [10]: 99%
- GI50 [4]: 31.3 µM
- t1/2 (Liver microsome): 27 min
- inhibition [11]: Active

SMILES: CC1Sc2nnc(-c3[nH]nc4c3CCC4)n2N=C1c1ccc(Cl)c(Cl)c1 (stereo unspecified)
- GI50 ([1]; Homo sapiens, CAL-33): 1.9 µM

SMILES: COc1ccc(C2=Nn3c(nnc3-c3cc(-c4ccccc4)n[nH]3)SC2CCN)cc1 (stereo unspecified)
- GI50 ([1]; Homo sapiens, CAL-33): 2.5 µM

SMILES: COc1ccc(C2=Nn3c(nnc3-c3cc(-c4ccc(Cl)cc4)n[nH]3)SC2C)cc1 (stereo in doubt; form 1) [listing 2 of 2 here]
- inhibition [6]: Active
- inhibition [7]: 21%
- inhibition [8]: Active
- inhibition [9]: 55%
- inhibition [10]: 99.7%
- inhibition [11]: Active
